Experimental data: patent EP0084597A1, “Triazole and imidazole derivatives and pharmaceutical preparations containing them” (BAYER AG, priority 1981, dated 1983)
Values after ≈ are worked out from the molar mass of the structure shown.

Legend:
[1] = system: Dermatophyten und Schimmelpilze, Hefen; assay: Antimycotic in-vitro activity, serial dilution test, overall comparison with known compounds; format: cell-based; settings: compared with known compounds (A),(B),(C) and (D)
Experimental: (§1) Die in-vitro-Prüfungen wurden im Reihenverdünnungstest mit Keiminokula von durchschnittlich 5 x 10^4 Keimen/ml Substrat durchgeführt. Als Nährmedium dienten • a) für Dermatophyten und Schimmelpilze: Sabourand's milieu d'epreuve • b) für Hefen: Fleischextrakt-Traubenzucker-Bouillon.
(§2) Die Bebrütungstemperatur betrug 20°C, die Bebrütungsdauer lag bei 24 bis 96 Stunden bei Hefen und 96 Stunden bei Dermatophyten und Schimmelpilzen.

Torulopsis glabrata = assay: Antimycotic in-vitro activity, serial dilution test (MIC); format: cell-based; settings: meat extract-glucose broth, 20°C, 24 to 96 hours, inoculum 5 x 10^4 germs/ml; for MIC: Nakaseomyces glabratus, read-out: MHK-Werte in γ/ml Nährmedium, Torulopsis glabrata
Experimental: as §1, §2

Candida albicans = assay: as above; format: cell-based; settings: meat extract-glucose broth, 20°C, 24 to 96 hours, inoculum 5 x 10^4 germs/ml; for MIC: Candida albicans, read-out: MHK-Werte in γ/ml Nährmedium, Candida albicans
Experimental: as §1, §2

Microsporum canis = assay: as above; format: cell-based; settings: Sabouraud medium, 20°C, inoculum 5 x 10^4 germs/ml; for MHK-Werte in γ/ml Nährmedium, Microsporum canis: 96 hours; for MIC: Microsporum canis, 96 h, read-out: MHK-Werte in γ/ml Nährmedium, Microsporum canis
Experimental: as §1, §2

Candida-Zellen = assay: Antimycotic in-vivo activity (oral) in mouse candidosis; set-up: species or system Mäuse vom Typ SPF-CF1; key: +++++: sehr gute Wirkung = 90 % Ueberlebende am 6.Tag p.i.; ++++: gute Wirkung = 80 % Ueberlebende am 6.Tag p.i.; +++: Wirkung = 60 % Ueberlebende am 6.Tag p.i.; ++: schwache Wirkung = 40 % Ueberlebende am 6.Tag p.i.; +: Spur Wirkung; k.W.: keine Wirkung
Experimental: Mäuse vom Typ SPF-CF1 wurden intravenös mit 1 - 2 x 10^6 logarithmisch wachsenden Candida-Zellen, die in physiologischer Kochsalzlösung suspendiert werden, infiziert. Eine Stunde vor und sieben Stunden nach der Infektion werden die Tiere mit jeweils 50 - 100 mg/kg Körpergewicht der Präparate oral behandelt.
Uhbehandelte Tiere starben 3 bis 6 Tage post infektionem. Die Ueberlebensrate am 6.Tag post infektionem betrug bei uhbehandelten Kontrolltieren etwa 5 %.
• +++++ = sehr gute Wirkung = 90 % Ueberlebende am 6.Tag p.i. • ++++ = gute Wirkung = 80 % Ueberlebende am 6.Tag p.i. • +++ = Wirkung = 60 % Ueberlebende am 6.Tag p.i. • ++ = schwache Wirkung = 40 % Ueberlebende am 6.Tag p.i. • + = Spur Wirkung = k.W. = keine Wirkung

[2] = system: Trichophyton mentagrophytes; assay: Antimycotic in-vivo activity (local) in experimental guinea pig trichophytosis; set-up: species or system Meerschweinchen; key to Wirkung: +++++: sehr gute Wirkung = keine Infektionszeichen am 12.-15.Tag p.i.; ++++: gute Wirkung = geringe Rötung, vereinzelt Schuppen; +++: Wirkung = Rötung, Schuppung, ohne Haarausfall; ++: schwache Wirkung = Rötung, Schuppung, Haarausfall; +: Spur Wirkung = flächiger Haarausfall, entzündliche Hautreaktion; settings: for Wirkungen: local treatment; for Wirkung: local treatment 1x daily from day 3 p.i. with a 15% solution in dimethylsulfoxide : glycerol = 1 : 4, signs of infection day 12-15 p.i.
Trichophyton mentagr. = assay: Antimycotic in-vitro activity, serial dilution test (MIC); format: cell-based, Trichophyton mentagrophytes; settings: Sabouraud medium, 20°C, 96 hours, inoculum 5 x 10^4 germs/ml; for MIC: Trichophyton, read-out: MHK-Werte in γ/ml Nährmedium, Trichophyton mentagr.
Experimental: as §1, §2

Aspergillus fumig. = assay: as above; format: cell-based, Aspergillus fumigatus; settings: Sabouraud medium, 20°C, inoculum 5 x 10^4 germs/ml; for MIC: Aspergillus, 96 h, read-out: MHK-Werte in γ/ml Nährmedium, Aspergillus fumig.
Experimental: as §1, §2

[3] = mice infected i.v. with 1 - 2 x 10^6 Candida cells, oral 50 - 100 mg/kg one hour before and seven hours after infection, survivors on day 6 p.i.
[4] = mouse candidosis, oral, compared with known compounds (A), (B), (C) and (D)

SMILES	antimykotische Wirkung [1]	MHK-Werte in γ/ml Nährmedium, Torulopsis glabrata (Torulopsis glabrata) [µg/mL]	MHK-Werte in γ/ml Nährmedium, Candida albicans (Candida albicans) [µg/mL]	MHK-Werte in γ/ml Nährmedium, Microsporum canis (Microsporum canis) [µg/mL]	Wirkung (Candida-Zellen; [3])	Wirkung (Candida-Zellen; [4])	Wirkungen [2]	Wirkung [2]	MIC (Trichophyton mentagr.) [µg/mL]	MIC (Aspergillus fumig.) [µg/mL]	MHK-Werte in γ/ml Nährmedium, Trichophyton mentagr. (Trichophyton mentagr.) [µg/mL]	MHK-Werte in γ/ml Nährmedium, Aspergillus fumig. (Aspergillus fumig.; 96 hours) [µg/mL]	MIC (Candida albicans) [µg/mL]	MIC (Torulopsis glabrata) [µg/mL]	MIC (Microsporum canis) [µg/mL]
CCC(C(O)c1ccc(Oc2ccc(Cl)cc2)cc1)n1cncn1 (single isomer, unassigned) [Beispiel 29]	bessere antimykotische Wirkung	8	8	8	+++++ (sehr gute Wirkung = 90 % Ueberlebende am 6.Tag p.i.)	bessere Wirkung	bestimmte Wirkungen	+++	< 1	32 (≈ 93.1 µM)	–	–	–	–	–
CCC(C(O)c1ccc(Oc2ccc(Cl)cc2)cc1)n1cncn1 (single isomer, unassigned) [Beispiel 30]	bessere antimykotische Wirkung	<1	<1	32	+++ (Wirkung = 60 % Ueberlebende am 6.Tag p.i.)	bessere Wirkung	bestimmte Wirkungen	++	–	–	<1	>64	–	–	–
CCCC(C(O)c1ccc(Oc2ccc(Cl)cc2)cc1)n1cncn1 (single isomer, unassigned) [Beispiel 32]	–	–	–	–	+++++ (sehr gute Wirkung = 90 % Ueberlebende am 6.Tag p.i.)	bessere Wirkung	bestimmte Wirkungen	+++	–	–	–	–	–	–	–
CCCCC(C(O)c1ccc(Oc2ccc(Cl)cc2)cc1)n1cncn1 (single isomer, unassigned) [Beispiel 33]	bessere antimykotische Wirkung	<1	–	8	+++++ (sehr gute Wirkung = 90 % Ueberlebende am 6.Tag p.i.)	bessere Wirkung	–	–	< 1	64 (≈ 172 µM)	–	–	< 1	–	–
CCCC(C(=O)c1ccc(Oc2ccc(Cl)cc2)cc1)n1cncn1 (stereo not drawn) [Beispiel 6]	–	–	–	–	+++ (Wirkung = 60 % Ueberlebende am 6.Tag p.i.)	bessere Wirkung	bestimmte Wirkungen	++++	–	–	–	–	–	–	–
CC(C(=O)c1ccc(Oc2ccc(Cl)cc2)cc1)n1cncn1 (stereo not drawn) [Beispiel 9]	bessere antimykotische Wirkung	–	–	–	+++ (Wirkung = 60 % Ueberlebende am 6.Tag p.i.)	bessere Wirkung	–	–	2 (≈ 6.1 µM)	8 (≈ 24.4 µM)	–	–	8 (≈ 24.4 µM)	16 (≈ 48.8 µM)	4 (≈ 12.2 µM)
CCC(C(=O)c1ccc(Oc2ccc(Cl)cc2)cc1)n1ccnc1 (stereo not drawn) [Beispiel 24]	bessere antimykotische Wirkung	–	–	–	+++ (Wirkung = 60 % Ueberlebende am 6.Tag p.i.)	bessere Wirkung	bestimmte Wirkungen	+++	4 (≈ 11.7 µM)	8 (≈ 23.5 µM)	–	–	4 (≈ 11.7 µM)	8 (≈ 23.5 µM)	4 (≈ 11.7 µM)
CC(C(O)c1ccc(Oc2ccc(Cl)cc2)cc1)n1cncn1 (stereo not drawn) [Beispiel 35]	bessere antimykotische Wirkung	–	–	–	+++ (Wirkung = 60 % Ueberlebende am 6.Tag p.i.)	bessere Wirkung	bestimmte Wirkungen	+++	< 1	32 (≈ 97 µM)	–	–	< 1	2 (≈ 6.06 µM)	8 (≈ 24.3 µM)
CCCC(n1cncn1)C(C)(O)c1ccc(Oc2ccc(Cl)cc2)cc1 (stereo not drawn) [Beispiel 43]	bessere antimykotische Wirkung	–	–	–	+++++ (sehr gute Wirkung = 90 % Ueberlebende am 6.Tag p.i.)	bessere Wirkung	bestimmte Wirkungen	+++	< 1	> 64	–	–	< 1	4 (≈ 10.8 µM)	16 (≈ 43 µM)
CC(n1cncn1)C(O)(Cc1ccc(Cl)cc1)c1ccc(Oc2ccc(Cl)cc2)cc1 (stereo not drawn) [Beispiel 45]	bessere antimykotische Wirkung	–	–	–	+	bessere Wirkung	bestimmte Wirkungen	+	2 (≈ 4.4 µM)	> 64	–	–	< 1	< 1	32 (≈ 70.4 µM)
C=CCC(O)(c1ccc(Oc2ccc(Cl)cc2)cc1)C(CCC)n1cncn1 (stereo not drawn) [Beispiel 46]	bessere antimykotische Wirkung	–	–	–	++++ (gute Wirkung = 80 % Ueberlebende am 6.Tag p.i.)	bessere Wirkung	–	+	< 1	32 (≈ 80.4 µM)	–	–	< 1	8 (≈ 20.1 µM)	8 (≈ 20.1 µM)
Cc1cccc(Cl)c1Oc1ccc(C(O)Cn2cncn2)cc1 (stereo not drawn) [Beispiel 47]	bessere antimykotische Wirkung	–	–	–	++++ (gute Wirkung = 80 % Ueberlebende am 6.Tag p.i.)	bessere Wirkung	bestimmte Wirkungen	++++	< 1	8 (≈ 24.3 µM)	–	–	< 1	< 1	8 (≈ 24.3 µM)
CCC(C(O)c1ccc(Oc2ccc(Cl)cc2)cc1)n1ccnc1 (stereo not drawn) [Beispiel 70]	bessere antimykotische Wirkung	–	–	–	+	bessere Wirkung	–	–	2 (≈ 5.83 µM)	16 (≈ 46.7 µM)	–	–	< 1	< 1	8 (≈ 23.3 µM)
CC(C)C(C(O)c1ccc(Oc2ccc(Cl)cc2)cc1)n1ccnc1 (stereo not drawn) [Beispiel 73]	bessere antimykotische Wirkung	–	–	–	–	–	–	–	4 (≈ 11.2 µM)	64 (≈ 179 µM)	–	–	4 (≈ 11.2 µM)	2 (≈ 5.6 µM)	16 (≈ 44.8 µM)
CCCC(C(O)c1ccc(Oc2ccc(Cl)cc2)cc1)n1ccnc1 (stereo not drawn) [Beispiel 74]	bessere antimykotische Wirkung	–	–	–	–	–	–	–	< 1	64 (≈ 179 µM)	–	–	< 1	< 1	8 (≈ 22.4 µM)
